From US12590083B2, “Inhibitors of spinster homolog 2 (SPNS2) for use in therapy” (University of Virginia Patent Foundation, priority 2019, dated 2026)
Where a name gives a salt, the structure may show the parent alone.

Biological target: T1, human SPNS2 (Homo sapiens, UniProt Q8IVW8)
T1 construct: expressed in transfected cells; host or cells: Saccharomyces cerevisiae strain with forced expression of a mammalian SphK and human SPNS2
T1 sequence (Q8IVW8 1-549): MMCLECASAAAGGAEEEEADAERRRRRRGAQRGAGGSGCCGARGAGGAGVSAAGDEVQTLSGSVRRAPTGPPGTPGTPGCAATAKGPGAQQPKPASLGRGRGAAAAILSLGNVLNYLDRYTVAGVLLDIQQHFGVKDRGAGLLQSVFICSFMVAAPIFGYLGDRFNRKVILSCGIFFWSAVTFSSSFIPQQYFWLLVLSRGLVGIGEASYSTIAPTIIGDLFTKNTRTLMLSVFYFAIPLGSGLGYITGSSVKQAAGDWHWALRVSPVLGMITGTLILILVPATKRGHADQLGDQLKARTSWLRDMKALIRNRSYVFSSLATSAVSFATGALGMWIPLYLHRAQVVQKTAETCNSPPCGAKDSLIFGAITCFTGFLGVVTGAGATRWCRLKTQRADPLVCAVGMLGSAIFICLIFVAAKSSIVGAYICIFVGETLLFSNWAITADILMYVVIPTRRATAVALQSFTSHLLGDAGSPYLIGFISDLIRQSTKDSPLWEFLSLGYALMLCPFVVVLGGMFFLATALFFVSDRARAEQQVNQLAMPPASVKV
Assay: S1P transporter assay: growth of S. cerevisiae strain with forced expression of a mammalian SphK and human SPNS2
Type: cell-based
Conditions: in vitro inhibition of SPNS2; growth of S. cerevisiae strain expressing mammalian SphK and human SPNS2; compounds as their pharmaceutical salts
Excerpt: Transporter assays are vectorial and, therefore, require measurement of the transported analyte in different compartments. The assay of S1P transporters is problematic because S1P is exported, but not imported, by SPNS2, which obviates measuring uptake of mass- or radio-labeled S1P into transporter-expressing cells.
To assay for SPNS2 inhibitor hits, we took advantage of the growth inhibitory effects of excessive levels of phosphorylated Long Chain Base (phospho-LCB) levels on the budding yeast, S. cerevisiae (Kharel Y, et al. Saccharomyces cerevisiae as a platform for assessing sphingolipid lipid kinase inhibitors. PLoS One 13, e0192179 (2018) PMC5908134). Yeast lack the desaturase that converts dihydroceramide to ceramide and, therefore, have neither sphingosine nor S1P. Rather, yeast have the reduced form, dihydrosphingosine, and the 4-hydroxyl analog, phytosphingosine and their respective phosphates. Like all eukaryotes, the yeast synthesizes (via LCB kinases (SphKs)) and degrades (via phospho-LCB lyase and phosphatase) phospho-LCBs, (dhS1P, phytoS1P). Yeast lack phospho-LCB transporters such as SPNS2, which are found only in vertebrates. To assess inhibition of SPNS2 in vitro, we used a strain of S. cerevisiae wherein expression of a mammalian SphK and human SPNS2 were forced. SPNS2 inhibitors decrease the growth of this strain. Table 2 below presents in vitro inhibition data against SPNS2 for exemplary compounds, presented here as their pharmaceutical salts, of the disclosure (A≤2 μM, B>2 μM).

IC50 [nM]	SMILES
> 2000	CC(C)(C)c1cccc(Nc2ccc(-c3noc([C@@H]4CCNC4)n3)cn2)c1 [Compound 13g, (R)—N-(3-(tert-butyl)phenyl)-5-(5-(pyrrolidin-3-yl)-1,2,4-oxadiazol-3-yl)pyridin-2-amine hydrochloride]
> 2000	CCCCCCCCCCc1ccc(Nc2ccc(-c3noc([C@@H]4CCNC4)n3)cn2)cc1 [Compound 13h, (R)—N-(4-decylphenyl)-5-(5-(pyrrolidin-3-yl)-1,2,4-oxadiazol-3-yl)pyridin-2-amine hydrochloride]
> 2000	CCCCc1ccc(Nc2ccc(-c3noc([C@@H]4CCNC4)n3)cn2)cc1 [Compound 13i, (R)—N-(4-butylphenyl)-5-(5-(pyrrolidin-3-yl)-1,2,4-oxadiazol-3-yl)pyridin-2-amine hydrochloride]
> 2000	c1ccc(CCCOc2ccc(-c3noc(C4CNC4)n3)cc2)cc1 [Compound 13j, 5-(azetidin-3-yl)-3-(4-(3-phenylpropoxy)phenyl)-1,2,4-oxadiazole hydrochloride]
> 2000	N=C(N)N1CC[C@@H](c2nc(-c3ccc(N4CCCCC4)nc3)no2)C1 [Compound 15a, (R)-3-(3-(6-(piperidin-1-yl)pyridin-3-yl)-1,2,4-oxadiazol-5-yl)pyrrolidine-1-carboximidamide hydrochloride]
> 2000	CCCCCCCCNc1ccc(-c2noc([C@@H]3CCN(C(=N)N)C3)n2)cn1 [Compound 15b, (R)-3-(3-(6-(octylamino)pyridin-3-yl)-1,2,4-oxadiazol-5-yl)pyrrolidine-1-carboximidamide hydrochloride]
> 2000	N=C(N)N1CCC[C@@H](c2nc(-c3ccc(Nc4ccc(OC(F)(F)F)c(F)c4)nc3)no2)C1 [Compound 15c, (R)-3-(3-(6-((3-fluoro-4-(trifluoromethoxy)phenyl)amino)pyridin-3-yl)-1,2,4-oxadiazol-5-yl)piperidine-1-carboximidamide hydrochloride]
> 2000	N=C(N)N1CC[C@@H](c2nc(-c3ccc(N4CCOCC4)nc3)no2)C1 [Compound 15d, (R)-3-(3-(6-morpholinopyridin-3-yl)-1,2,4-oxadiazol-5-yl)pyrrolidine-1-carboximidamide hydrochloride]
> 2000	N=C(N)N1CC[C@@H](c2nc(-c3ccc(Nc4ccccc4Cl)nc3)no2)C1 [Compound 15e, (R)-3-(3-(6-((2-chlorophenyl)amino)pyridin-3-yl)-1,2,4-oxadiazol-5-yl)pyrrolidine-1-carboximidamide hydrochloride]
> 2000	N=C(N)N1CC[C@@H](c2nc(-c3ccc(Nc4cc(Br)ccc4Br)nc3)no2)C1 [Compound 15f, (R)-3-(3-(6-((2,5-dibromophenyl)amino)pyridin-3-yl)-1,2,4-oxadiazol-5-yl)pyrrolidine-1-carboximidamide hydrochloride]
> 2000	CC(C)(C)c1cccc(Nc2ccc(-c3noc([C@@H]4CCN(C(=N)N)C4)n3)cn2)c1 [Compound 15g, (R)-3-(3-(6-((3-(tert-butyl)phenyl)amino)pyridin-3-yl)-1,2,4-oxadiazol-5-yl)pyrrolidine-1-carboximidamide hydrochloride]
≤ 2000	CCCCCCCCCCc1ccc(Nc2ccc(-c3noc([C@@H]4CCN(C(=N)N)C4)n3)cn2)cc1 [Compound 15h, (R)-3-(3-(6-((4-decylphenyl)amino)pyridin-3-yl)-1,2,4-oxadiazol-5-yl)pyrrolidine-1-carboximidamide hydrochloride]
> 2000	CCCCc1ccc(Nc2ccc(-c3noc([C@@H]4CCN(C(=N)N)C4)n3)cn2)cc1 [Compound 15i, (R)-3-(3-(6-((4-butylphenyl)amino)pyridin-3-yl)-1,2,4-oxadiazol-5-yl)pyrrolidine-1-carboximidamide hydrochloride]
> 2000	N=C(N)N1CC(c2nc(-c3ccc(OCCCc4ccccc4)cc3)no2)C1 [Compound 15j, 3-(3-(4-(3-phenylpropoxy)phenyl)-1,2,4-oxadiazol-5-yl)azetidine-1-carboximidamide hydrochloride]
> 2000	CCCCCCCOc1ccc(-c2noc([C@@H]3CCCNC3)n2)cc1C(F)(F)F [Compound 21c, (R)-3-(4-(heptyloxy)-3-(trifluoromethyl)phenyl)-5-(piperidin-3-yl)-1,2,4-oxadiazole hydrochloride]
> 2000	CCCCCCCCOc1ccc(-c2noc([C@@H]3CCCNC3)n2)cc1C(F)(F)F [Compound 21d, (R)-3-(4-(octyloxy)-3-(trifluoromethyl)phenyl)-5-(piperidin-3-yl)-1,2,4-oxadiazole hydrochloride]
> 2000	CCCCCCCCCCOc1ccc(-c2noc([C@@H]3CCCNC3)n2)cc1C(F)(F)F [Compound 21f, (R)-3-(4-(decyloxy)-3-(trifluoromethyl)phenyl)-5-(piperidin-3-yl)-1,2,4-oxadiazole hydrochloride]
> 2000	FC(F)(F)c1cc(-c2noc([C@@H]3CCCNC3)n2)ccc1OCCCc1ccccc1 [Compound 21j, (R)-3-(4-(3-phenylpropoxy)-3-(trifluoromethyl)phenyl)-5-(piperidin-3-yl)-1,2,4-oxadiazole hydrochloride]
≤ 2000	CCCCCCCCOc1ccc(-c2noc(C3CN(C(=N)N)C3)n2)cc1C(F)(F)F [Compound 23a, 3-(3-(4-(octyloxy)-3-(trifluoromethyl)phenyl)-1,2,4-oxadiazol-5-yl)azetidine-1-carboximidamide hydrochloride]
≤ 2000	CCCCCCCCCOc1ccc(-c2noc(C3CN(C(=N)N)C3)n2)cc1C(F)(F)F [Compound 23b, 3-(3-(4-(nonyloxy)-3-(trifluoromethyl)phenyl)-1,2,4-oxadiazol-5-yl)azetidine-1-carboximidamide hydrochloride]
≤ 2000	CCCCCCCOc1ccc(-c2noc([C@@H]3CCCN(C(=N)N)C3)n2)cc1C(F)(F)F [Compound 23c, (R)-3-(3-(4-(heptyloxy)-3-(trifluoromethyl)phenyl)-1,2,4-oxadiazol-5-yl)piperidine-1-carboximidamide hydrochloride]
> 2000	CCCCCCCCOc1ccc(-c2noc([C@@H]3CCCN(C(=N)N)C3)n2)cc1C(F)(F)F [Compound 23d, (R)-3-(3-(4-(octyloxy)-3-(trifluoromethyl)phenyl)-1,2,4-oxadiazol-5-yl)piperidine-1-carboximidamide hydrochloride]
≤ 2000	CCCCCCCCCOc1ccc(-c2noc([C@@H]3CCCN(C(=N)N)C3)n2)cc1C(F)(F)F [Compound 23e, (R)-3-(3-(4-(nonyloxy)-3-(trifluoromethyl)phenyl)-1,2,4-oxadiazol-5-yl)piperidine-1-carboximidamide hydrochloride]
≤ 2000	CCCCCCCCCCOc1ccc(-c2noc([C@@H]3CCCN(C(=N)N)C3)n2)cc1C(F)(F)F [Compound 23f, (R)-3-(3-(4-(decyloxy)-3-(trifluoromethyl)phenyl)-1,2,4-oxadiazol-5-yl)piperidine-1-carboximidamide hydrochloride]
> 2000	N=C(N)N1CC(c2nc(-c3ccc(OCc4ccc(C(F)(F)F)cc4)c(C(F)(F)F)c3)no2)C1 [Compound 23g, 3-(3-(3-(trifluoromethyl)-4-((4-(trifluoromethyl)benzyl)oxy)phenyl)-1,2,4-oxadiazol-5-yl)azetidine-1-carboximidamide hydrochloride]
> 2000	N=C(N)N1CCC[C@@H](c2nc(-c3ccc(OCc4ccc(C(F)(F)F)cc4)c(C(F)(F)F)c3)no2)C1 [Compound 23h, (R)-3-(3-(3-(trifluoromethyl)-4-((4-(trifluoromethyl)benzyl)oxy)phenyl)-1,2,4-oxadiazol-5-yl)piperidine-1-carboximidamide hydrochloride]
> 2000	N=C(N)N1CC(c2nc(-c3ccc(OCCCc4ccccc4)c(C(F)(F)F)c3)no2)C1 [Compound 23i, 3-(3-(4-(3-phenylpropoxy)-3-(trifluoromethyl)phenyl)-1,2,4-oxadiazol-5-yl)azetidine-1-carboximidamide hydrochloride]
> 2000	N=C(N)N1CCC[C@@H](c2nc(-c3ccc(OCCCc4ccccc4)c(C(F)(F)F)c3)no2)C1 [Compound 23j, (R)-3-(3-(4-(3-phenylpropoxy)-3-(trifluoromethyl)phenyl)-1,2,4-oxadiazol-5-yl)piperidine-1-carboximidamide hydrochloride]
